Among the test systems are A549; BT-549; CCRF-CEM; COLO 205; K562; MDA-MB-231; MDA-MB-435; MOLT-4; NCI-H23; NCI-H460; SF-268; SF-539; SK-MEL-28; SK-MEL-2; SNB-19; SNB-75; T47D; TK-10; UACC-257.
Common to all, as to assay: NCI-60 cell line screen, 48 h

Each structure is given as a SMILES string.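 How tested: cells in 96-well plates exposed to compound for 48 hours at five concentrations. GI50 = concentration required for 50% inhibition of growth.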 The source made the active and inactive calls. Cut-off read from the data, not from the text of the source: active = GI50 up to about 1.1 µM and inactive = higher. Non-standard residues stand in square brackets, D forms with d. Residues, ends and D or L forms follow the SMILES beside them. ξ: configuration not given here. *: point of attachment. dThr(3ξ) = CC(O)[C@@H](N)C(=O)O; dNMeL = CN[C@H](CC(C)C)C(=O)O; OBn = c1ccc(CO*)cc1; ξLac = CC(O)C(=O)O

Consider `O=c1oc2ccc(Cl)cc2c2ccccc12`, for which the GI50 was 63.4 µM (inactive) in the test on A549; 13.4 µM (inactive) in the test on BT-549; > 100 µM (inactive) with CCRF-CEM; 65.8 µM (inactive) in the test with COLO 205; > 100 µM (inactive) in the test on K562; 17.4 µM (inactive) in the test on MDA-MB-231. Moreover, the GI50 was > 100 µM (inactive) with MDA-MB-435; > 100 µM (inactive) with MOLT-4; 23.8 µM (inactive) in the test with NCI-H23; > 100 µM (inactive) in the test with NCI-H460; 20.7 µM (inactive) in the test with SF-268; > 100 µM (inactive) in the test on SF-539. In addition, the GI50 in the test with SK-MEL-28 is > 100 µM (inactive); with SK-MEL-2, 18.6 µM (inactive); with SNB-19 it was 20 µM (inactive); in the test with SNB-75, 39.2 µM (inactive); with T47D it was > 100 µM (inactive); with TK-10, 51.6 µM (inactive). The GI50 in the test on UACC-257 was > 100 µM (inactive).
On to `O=[N+]([O-])c1ccc(/C=N/n2c(CO)nc3ccccc32)o1`, for which the GI50 in the test with A549 is 10.5 µM (inactive); in the test with BT-549 it was 13.6 µM (inactive); in the test with CCRF-CEM, 3.78 µM (inactive); in the test on COLO 205, 3.1 µM (inactive); with K562, 4.67 µM (inactive); in the test on MDA-MB-231 it was 5.36 µM (inactive). For the same molecule, the GI50 with MDA-MB-435 was 3.4 µM (inactive); in the test on MOLT-4, 1.1 µM (active); with NCI-H23, 5.42 µM (inactive); with NCI-H460 it was 3.29 µM (inactive); in the test on SF-268 it was 10.4 µM (inactive); in the test with SF-539 it was 17.9 µM (inactive). For the same molecule, the GI50 in the test on SK-MEL-28 is 3.52 µM (inactive); with SK-MEL-2, 4.67 µM (inactive); with SNB-19 it was 15.8 µM (inactive); in the test with SNB-75 it was 24.6 µM (inactive); in the test with T47D, 20.5 µM (inactive); with TK-10, 6.55 µM (inactive). Moreover, the GI50 with UACC-257 was 2.44 µM (inactive).
For the molecule `COc1ccc(C(F)(F)F)cc1NC(=O)O/N=C(/Cl)C(C)C`, the GI50 in the test on A549 was 20.8 µM (inactive); in the test with BT-549 it was 20.7 µM (inactive); in the test with CCRF-CEM it was 2.24 µM (inactive); with COLO 205, 2.03 µM (inactive); in the test with K562, 1.91 µM (inactive); in the test with MDA-MB-231, 19.4 µM (inactive). Moreover, the GI50 in the test with MDA-MB-435 is 20.8 µM (inactive); with MOLT-4 it was 2.05 µM (inactive); in the test on NCI-H23, 19.7 µM (inactive); with NCI-H460 it was 37.6 µM (inactive); in the test with SF-268, 23.8 µM (inactive); with SF-539, 18.3 µM (inactive). Further, the GI50 with SK-MEL-28 was 21.4 µM (inactive); in the test with SK-MEL-2, 18.8 µM (inactive); with SNB-19, 18.7 µM (inactive); in the test on SNB-75, 16.8 µM (inactive); with T47D it was 20 µM (inactive); in the test with TK-10 it was 15.1 µM (inactive). Also, in the test on UACC-257, the GI50 is 19.7 µM (inactive).
For the molecule `Clc1ncnc2c1nc(C#Cc1ccccc1)n2Cc1ccccc1`, the GI50 was 84.9 µM (inactive) in the test on A549; 20.8 µM (inactive) in the test on BT-549; 3.78 µM (inactive) in the test on CCRF-CEM; 16.5 µM (inactive) in the test on COLO 205; 3.67 µM (inactive) in the test with K562; 26.7 µM (inactive) in the test on MDA-MB-231. Besides, the GI50 is 11.9 µM (inactive) in the test on MDA-MB-435; 3.34 µM (inactive) in the test with MOLT-4; 16.6 µM (inactive) with NCI-H23; 82.2 µM (inactive) in the test on NCI-H460; 40.9 µM (inactive) in the test with SF-268; 29.9 µM (inactive) with SF-539. Further, the GI50 was 18.8 µM (inactive) in the test on SK-MEL-28; 30 µM (inactive) in the test on SK-MEL-2; 29.9 µM (inactive) in the test with SNB-19; 25.8 µM (inactive) in the test on SNB-75; 39.8 µM (inactive) in the test with T47D; > 100 µM (inactive) in the test on TK-10. The GI50 in the test on UACC-257 was 25.8 µM (inactive).
Regarding `COc1ccc2c(c1)CC[C@@H]1[C@@H]2CC[C@]2(C)C(=O)/C(=C/c3ccc(C#N)cc3)C[C@@H]12`, the GI50 in the test on A549, in the test on BT-549, in the test with CCRF-CEM, in the test with COLO 205, in the test on K562 and with MDA-MB-231 was > 100 µM (inactive) throughout. Further, the GI50 with MDA-MB-435, in the test with MOLT-4, in the test with NCI-H23, in the test on NCI-H460, with SF-268 and in the test with SF-539 was > 100 µM (inactive) in each case. For the same molecule, the GI50 in the test on SK-MEL-28, in the test with SK-MEL-2, in the test with SNB-19, in the test with SNB-75, with T47D and in the test on TK-10 was > 100 µM (inactive) in each case. Further, the GI50 in the test on UACC-257 is > 100 µM (inactive).
In the case of `CC(=O)OC(C)[C@@H](NC(=O)[C@@H](CC(C)C)N(C)C(=O)[C@@H]1CCCN1C(=O)C(C)O)C(=O)OCc1ccccc1` (stereo not given in full) (H-[ξLac]P[dNMeL][dThr(3ξ)](Ac)-OBn), the GI50 in the test on A549, in the test with BT-549, in the test with CCRF-CEM, in the test on COLO 205, in the test with K562 and in the test on MDA-MB-231 was > 100 µM (inactive) throughout. The GI50 in the test with MDA-MB-435, in the test with MOLT-4, with NCI-H23, in the test on NCI-H460, in the test on SF-268 and in the test with SF-539 was > 100 µM (inactive) each time. The GI50 was > 100 µM (inactive) with SK-MEL-28; > 100 µM (inactive) in the test on SK-MEL-2; > 100 µM (inactive) in the test on SNB-19; 81.7 µM (inactive) in the test on SNB-75; > 100 µM (inactive) in the test with T47D; > 100 µM (inactive) in the test on TK-10. Besides, in the test on UACC-257, the GI50 is > 100 µM (inactive).
With `COC(=O)CCCc1ccc2c(c1)CCC2`, the GI50 with A549, in the test with BT-549, with CCRF-CEM, with COLO 205, with MDA-MB-231 and in the test with MDA-MB-435 was > 100 µM (inactive) each time. In addition, the GI50 in the test with MOLT-4, in the test on NCI-H23, in the test on NCI-H460, in the test on SF-268, in the test with SF-539 and with SK-MEL-28 was > 100 µM (inactive) throughout. Further, the GI50 in the test with SK-MEL-2, in the test on SNB-19, in the test with SNB-75, with T47D, in the test on TK-10 and in the test with UACC-257 was > 100 µM (inactive) each time.
Regarding `Cc1n[nH]c(=O)n1/N=C/c1c[nH]c2ccccc12`, the GI50 is > 100 µM (inactive) in the test with A549; 38.4 µM (inactive) in the test on BT-549; > 100 µM (inactive) with CCRF-CEM; > 100 µM (inactive) in the test on COLO 205; > 100 µM (inactive) in the test on K562; > 100 µM (inactive) in the test on MDA-MB-231. Also, the GI50 in the test on MDA-MB-435 was > 100 µM (inactive); with MOLT-4, > 100 µM (inactive); in the test with NCI-H23 it was 80.5 µM (inactive); in the test on NCI-H460 it was > 100 µM (inactive); in the test on SF-268, > 100 µM (inactive); in the test with SF-539, > 100 µM (inactive). For the same molecule, the GI50 was > 100 µM (inactive) in the test with SK-MEL-28; > 100 µM (inactive) in the test on SK-MEL-2; > 100 µM (inactive) with SNB-19; 32.9 µM (inactive) in the test on SNB-75; > 100 µM (inactive) in the test on T47D; > 100 µM (inactive) in the test with UACC-257.
`O=C1CC(c2ccc(O)cc2)C2(O1)C(=O)OC(C(O)CO)C2O` (stereo not given): the GI50 with BT-549, in the test with CCRF-CEM, in the test with COLO 205, in the test with K562, with MDA-MB-231 and in the test with MDA-MB-435 was > 100 µM (inactive) throughout. The GI50 in the test with MOLT-4, with NCI-H23, with SF-268, in the test with SF-539, with SK-MEL-28 and in the test with SK-MEL-2 was > 100 µM (inactive) each time. Besides, the GI50 in the test on SNB-19, in the test with SNB-75, in the test with T47D, in the test on TK-10 and with UACC-257 was > 100 µM (inactive) in each case.
In the case of `CC(C)NC(=O)OCc1c(COC(=O)NC(C)C)n(C)c2c1ccc1ccsc12`, the GI50 was 9.98 µM (inactive) in the test with A549; 7.16 µM (inactive) with BT-549; 2.25 µM (inactive) with CCRF-CEM; 12.9 µM (inactive) in the test on COLO 205; 8.97 µM (inactive) with K562; 16.7 µM (inactive) in the test on MDA-MB-231. The GI50 in the test on MDA-MB-435 was 7.35 µM (inactive); with MOLT-4, 1.71 µM (inactive); with NCI-H23 it was 5.28 µM (inactive); in the test with NCI-H460 it was 3.24 µM (inactive); in the test on SF-268, 4.38 µM (inactive); in the test on SK-MEL-28, 12.6 µM (inactive). Also, the GI50 in the test with SK-MEL-2 was 12.7 µM (inactive); in the test on SNB-19, 10.8 µM (inactive); in the test on SNB-75, 6.78 µM (inactive); in the test on T47D it was 15.5 µM (inactive); with TK-10, 22.2 µM (inactive); in the test on UACC-257, 13.5 µM (inactive).

The values are drawn from ChEMBL document CHEMBL1201862, “PubChem BioAssay data set” (2004).
